These results are taken from patent publication US8778925B2, “Pyridine and pyrimidine based compounds as Wnt signaling pathway inhibitors for the treatment of cancer” (Cancer Research Technology Ltd., priority 2008, dated 2014).

Test system in one series: not given
Assay: not given
Conditions: not given
As to `NC(=O)C1CCN(c2ncncc2Cl)CC1`, the melting point lay in the range of 201 to 202 °C.

`Cc1cncnc1N1CCC(C(N)=O)CC1` had a melting point of 182 to 184 °C.

Consider `O=C(c1ccccc1)N1CCN(c2c(Cl)cncc2Cl)CC1`, for which the melting point lay in the range of 132 to 134 °C.

`O=C(NCCNc1c(Cl)cncc1Cl)C1CCN(c2c(Cl)cncc2Cl)CC1` [Example E5, 1-(3,5-dichloropyridin-4-yl)-N-(2-(3,5-dichloropyridin-4-ylamino)ethyl)piperidine-4-carboxamide] came in with a melting point of 157 to 159 °C.

Compound `CC(=O)N1CCN(c2c(Cl)cncc2Cl)CC1` [Example E9, 1-(4-(3,5-dichloropyridin-4-yl)piperazin-1-yl)ethanone] came in with a melting point of 144 to 146 °C.

For the compound `O=C(NCCNCC1CCCCC1)C1CCN(c2c(Cl)cncc2Cl)CC1` [Example E16, N-(2-(cyclohexylmethylamino)ethyl)-1-(3,5-dichloropyridin-4-yl)piperidine-4-carboxamide], the melting point was 174 to 177 °C.

Compound `O=C(NCCN(Cc1ccccc1)Cc1ccccc1)C1CCN(c2c(Cl)cncc2Cl)CC1` [Example E17, N-(2-(dibenzylamino)ethyl)-1-(3,5-dichloropyridin-4-yl)piperidine-4-carboxamide] registered a melting point of 147 to 149 °C.

`O=C(NCCN(CC1CCCCC1)CC1CCCCC1)C1CCN(c2c(Cl)cncc2Cl)CC1` [Example E18, N-(2-(bis(cyclohexylmethyl)amino)ethyl)-1-(3,5-dichloropyridin-4-yl)piperidine-4-carboxamide] yielded a melting point of 236 to 238 °C.

As to `O=C(NCCNC(=O)C1CCN(c2c(Cl)cncc2Cl)CC1)c1ccccc1` [Example E19, N-(2-benzamidoethyl)-1-(3,5-dichloropyridin-4-yl)piperidine-4-carboxamide], the melting point lay in the range of 209 to 211 °C.

`O=C(C1CCN(c2c(Cl)cncc2Cl)CC1)N1CCNCC1` [Example E20, (1-(3,5-dichloropyridin-4-yl)piperidin-4-yl)(piperazin-1-yl)methanone] came in with a melting point of 256 to 258 °C.

`NC(=O)C1CCN(c2c(Cl)cncc2Cl)C1` (stereo not shown) [Example E21, 1-(3,5-dichloropyridin-4-yl)pyrrolidine-3-carboxamide]: the melting point was 161 to 163 °C.

The compound `N#CC1CCN(c2c(Br)cncc2Br)C1` (stereo not shown) [Example E23, 1-(3,5-dibromopyridin-4-yl)pyrrolidine-3-carbonitrile] yielded a melting point of 159 to 161 °C.

For the compound `NC(=O)C1CCN(c2ncncc2Br)CC1` [Example E29, 1-(5-bromopyrimidin-4-yl)piperidine-4-carboxamide], the melting point lay in the range of 188 to 190 °C.

In turn, `NC(=O)C1CCN(c2c(Br)cncc2-c2ccccc2)CC1` [Example E39, 1-(3-bromo-5-phenylpyridin-4-yl)piperidine-4-carboxamide] showed a melting point of 220 to 222 °C.

The next series concerns Wnt pathway. Nature of the series: Luciferase reporter cell based assay (ER-DSH HEK293 cells). The settings on record: Homo sapiens, TCF-dependent transcription induced by estrogen (2 μM), reporter activity at 24 hours, read-out: IC50 in Luciferase reporter assay (ER-DSH HEK293 cells) assay described in Example 92. As for the experimental part: Inhibitory activity of the Wnt pathway was assessed using a luciferase reporter cell based assay. A luciferase reporter cell line was developed in HEK293 cells, which contained an estrogen receptor-DSH (ER-DSH) construct and a TCF-luciferase-IRES-GFP construct.
A high-throughput assay was performed by inducing TCF-dependent transcription in the ER-DSH HEK293 cell line by the addition of estrogen (2 μM) resulting in at least a 14-fold increase in reporter activity measured at 24 hours. […]
In the case of `CNC(=O)C1CCN(c2c(Cl)cncc2Cl)CC1` [Example E1, 1-(3,5-dichloropyridin-4-yl)-N-methylpiperidine-4-carboxamide], the IC50 was 12600 nM.

Regarding `CN(C)C(=O)C1CCN(c2c(Cl)cncc2Cl)CC1` [Example E2, 1-(3,5-dichloropyridin-4-yl)-N,N-dimethylpiperidine-4-carboxamide], the concentration for half-maximal inhibition (IC50) was 30000 nM.

Regarding `COc1ccc(-c2cncc(Cl)c2N2CCC(C(N)=O)CC2)cc1OC` [Example E4, 1-(3-chloro-5-(3,4-dimethoxyphenyl)pyridin-4-yl)piperidine-4-carboxamide], the IC50 is 170 nM.

For the compound `CC(=O)N1CCN(c2c(Cl)cncc2Cl)CC1` [Example E9, 1-(4-(3,5-dichloropyridin-4-yl)piperazin-1-yl)ethanone], the half-inhibitory concentration (IC50) was found to be 12100 nM.

For the compound `NC(=O)C1CCN(c2ccncc2Cl)CC1` [Example E12, 1-(3-chloropyridin-4-yl)piperidine-4-carboxamide], the IC50 was found to be 22900 nM.

`NCCNC(=O)C1CCN(c2c(Cl)cncc2Cl)CC1` [Example E13, N-(2-aminoethyl)-1-(3,5-dichloropyridin-4-yl)piperidine-4-carboxamide]: the 50% inhibitory concentration (IC50) was found to be 7000 nM.

Consider `NC(=O)C1CCN(c2c(Cl)cncc2Cl)C1` (stereo not shown) [Example E21, 1-(3,5-dichloropyridin-4-yl)pyrrolidine-3-carboxamide], for which the IC50 amounted to 760 nM.

As to `NC(=O)C1CCN(c2c(Br)cncc2Br)CC1` [Example E27, 1-(3,5-dibromopyridin-4-yl)piperidine-4-carboxamide], the IC50 came out at 210 nM.

With `NC(=O)C1CCN(c2ncncc2Br)CC1` [Example E29, 1-(5-bromopyrimidin-4-yl)piperidine-4-carboxamide], the IC50 was 16200 nM.

As for `NC(=O)C1CCN(c2ncncc2-c2ccccc2)CC1` [Example E33, 1-(5-phenylpyrimidin-4-yl)piperidine-4-carboxamide], the IC50 was 5000 nM.

With `Clc1cncc(Cl)c1N1CCC(c2ncco2)CC1` [Example E35, 2-(1-(3,5-dichloropyridin-4-yl)piperidin-4-yl)oxazole], the concentration for half-maximal inhibition (IC50) turned out to be 7660 nM.

Consider `COc1ccc(-c2cnccc2N2CCC(C(N)=O)CC2)cc1` [Example E37, 1-(3-(4-methoxyphenyl)pyridin-4-yl)piperidine-4-carboxamide], for which the IC50 worked out at 1640 nM.

On to `COc1ccc(-c2cncc(Cl)c2N2CCC(C(N)=O)CC2)cc1` [Example E43, 1-(3-chloro-5-(4-methoxyphenyl)pyridin-4-yl)piperidine-4-carboxamide], for which the half-inhibitory concentration (IC50) turned out to be 32 nM.

`Cc1nn(C)cc1-c1cncc(Cl)c1N1CCC(C(N)=O)CC1` [Example E47, 1-(3-chloro-5-(1,3-dimethyl-1H-pyrazol-4-yl)pyridin-4-yl)piperidine-4-carboxamide]: the concentration for half-maximal inhibition (IC50) came out at 440 nM.

With `NC(=O)C1CCN(c2c(Cl)cncc2-c2ccc(F)cc2)CC1` [Example E50, 1-(3-chloro-5-(4-fluorophenyl)pyridin-4-yl)piperidine-4-carboxamide], the half-inhibitory concentration (IC50) is 110 nM.

As to `O=C1NCCC12CCN(c1c(Cl)cncc1Cl)CC2` [Example E59, 8-(3,5-dichloropyridin-4-yl)-2,8-diazaspiro[4.5]decan-1-one], the IC50 is 3430 nM.

Regarding `O=C1NCCC12CCN(c1c(Cl)cncc1-c1ccccc1)CC2` [Example E60, 8-(3-chloro-5-phenylpyridin-4-yl)-2,8-diazaspiro[4.5]decan-1-one], the concentration for half-maximal inhibition (IC50) is 33 nM.

In the case of `NC(=O)C1CCN(c2c(Cl)cncc2-c2ccncc2)CC1` [Example E65, 1-(5-chloro-3,4′-bipyridin-4-yl)piperidine-4-carboxamide], the 50% inhibitory concentration (IC50) was found to be 440 nM.

Turning to `NC(=O)C1CCN(c2ccncc2-c2ccccc2)CC1` [Example E68, 1-(3-phenylpyridin-4-yl)piperidine-4-carboxamide], the IC50 is 1150 nM.

For the compound `COc1ccc(-c2cncc(Cl)c2N2CCC(C(N)=O)C2)cc1` (stereo not shown) [Example E74, 1-(3-chloro-5-(4-methoxyphenyl)pyridin-4-yl)pyrrolidine-3-carboxamide], the concentration for half-maximal inhibition (IC50) was 260 nM.

Take `COc1ccc(-c2cncnc2N2CCC(C(N)=O)CC2)cc1` [Example E85, 1-(5-(4-methoxyphenyl)pyrimidin-4-yl)piperidine-4-carboxamide]: the IC50 was 1580 nM.

For `N#CC1CCN(c2c(Cl)cncc2-c2ccccc2)CC1` [Example E86, 1-(3-chloro-5-phenylpyridin-4-yl)piperidine-4-carbonitrile], the IC50 turned out to be 90 nM.

As to `O=C(O)C1CCN(c2c(Cl)cncc2-c2ccccc2)CC1` [Example E87, 1-(3-chloro-5-phenylpyridin-4-yl)piperidine-4-carboxylic acid], the half-inhibitory concentration (IC50) turned out to be 740 nM.
